According to patent publication US20250186545A1, “RECOMBINANT PROTEIN FOR ULCERATIVE COLITIS TREATMENT OR PREVENTION AND COMPOSITION FOR ULCERATIVE COLITIS TREATMENT OR PREVENTION CONTAINING THE SAME” (NEXEL CO., LTD., priority 2021, published 2025):

Tests used:
Format in all cases: in vivo, C57BL/6 mice
[1] = test system: DSS-induced colitis model; assay: Histopathology (H&E) of large intestinal mucosa: erosion and epithelial hyperplasia; study of FIG. 10
Excerpt: (§1) First, in the case of an animal model for mice in which ulcerative colitis is induced using DSS (Dextran sulfate sodium), bloody stool, weight loss, large intestinal shrinkage, and mucosal ulcers occur, and histologically, damage occurs in large intestinal epithelial cells, so that the intestinal glands of an epithelial layer fall off without inflammation. Further, the amount of f various immune substances in the mucosa increases to cause intestinal inflammation. For this reason, DSS has been widely used to create experimental animal models.
(§2) Specifically, in a DSS-induced colitis model in which 9-week-old female C57BL/6 mice were allowed to freely ingest 2% DSS, an experiment was conducted assuming that one C57BL/6 mouse ingested 5 ml of water containing 2% DSS per day.
(§3) For 7 days, only water containing 2% DSS without any treatment was provided to the mice, and for 5 days after the 7th day, water without 2% DSS was provided, and simultaneously, various comparative substances, including NP-011 protein, were fed at various concentrations by injection into the caudal vein, thereby creating an animal model of inducing ulcerative colitis.
(§4) Lastly, as shown in FIG. 6 and FIG. 10, a third experimental group ‘NP-011’ that is an experimental group was supplied with only water containing 2% DSS from day 0 to day 7, was supplied with plain water from day 7 to day 14, and NP-011 recombinant protein of 320 μg/kg was administered once a day for 5 days starting from day 7, a total of 5 times.
Form the results in FIG. 7 and Table 1, it can be confirmed that the degrees of crypt damage, inflammation severity, and inflammation extent in the mucosa were reduced in the order of MFG-E8 160 μg/kg, NP-011 80 μg/kg, and NP-011 320 μg/kg compared with the positive control group after induction of ulcerative colitis, so that the overall degree of damage to the large intestinal mucosa was lowered.
Then, the tissue fixed with 4% paraformaldehyde was subjected to staining (Hematoxylin & Eosin stain) and histopathological examination by KP&T Co., Ltd. The pathological interpretation was made with reference to INHAND. The degrees of erosion and epithelial hyperplasia in the mucosa of the large intestinal tissue were measured for comparison of lesions in the respective animal model groups, and results thereof are shown in FIG. 11 and Table 2. (Reference-J Toxicol Pathol 2016; 29 (1 Suppl)): 1S-124S)

[2] = test system: DSS-induced colitis model; assay: Body weight change, study of FIG. 10 (FIG. 12, Tables 4 and 5); conditions: for Change of original weight: AD group
Excerpt: as §1, §2, §3
Lastly, as shown in FIG. 6 and FIG. 10, a third experimental group ‘NP-011’ that is an experimental group was supplied with only water containing 2% DSS from day 0 to day 7, was supplied with plain water from day 7 to day 14, […] for 5 days starting from day 7, a total of 5 times.
In addition, increase or decrease in body weight was analyzed on the basis of the original body weight, and the level of weight increase or decrease compared with the positive control group was also analyzed.

[3] = test system: DSS-induced colitis model; assay: Histopathology (H&E) of large intestinal mucosa: crypt damage, inflammation severity, inflammation extent; study of FIG. 6
Excerpt: First, in the case of an animal model for mice in which ulcerative colitis is induced using DSS (Dextran sulfate sodium), bloody stool, weight loss, large intestinal shrinkage, and mucosal ulcers occur, and histologically, damage occurs in large intestinal epithelial cells, so that the intestinal glands of an epithelial layer fall off without inflammation. Further, the amount of f various immune substances in the mucosa increases to cause intestinal inflammation. For this reason, DSS has been widely used to create experimental animal models. Specifically, in a DSS-induced colitis model in which 9-week-old female C57BL/6 mice were allowed to freely ingest 2% DSS, an experiment was conducted assuming that one C57BL/6 mouse ingested 5 ml of water containing 2% DSS per day. For 7 days, only water containing 2% DSS without any treatment was provided to the mice, and for 5 days after the 7th day, water without 2% DSS was provided, and simultaneously, various comparative substances, including NP-011 protein, were fed at various concentrations by injection into the caudal vein, thereby creating an animal model of inducing ulcerative colitis. […] Lastly, as shown in FIG. 6 and FIG. 10, a third experimental group 'NP-011' that is an experimental group was supplied with only water containing 2% DSS from day 0 to day 7, was supplied with plain water from day 7 to day 14, and NP-011 recombinant protein of 320 μg/kg was administered once a day for 5 days starting from day 7, a total of 5 times. First, using the animal models corresponding to the 'NTC' control group, the 'UC CONTROL' control group, the 'MFG-E8' experimental group, the 'NP-011' second experimental group, and the 'NP-011' third experimental group, for each animal model group, the cecum was removed from a large intestinal tissue, and 1 to 2 cm of the proximal and 1 cm of the anus were secured and fixed with 4% paraformaldehyde. Then, the tissue fixed with 4% paraformaldehyde was subjected to staining (Hematoxylin & Eosin stain) and histopathological examination by KP&T Co., Ltd. The pathological interpretation was made with reference to […] (International Harmonization of Nomenclature and Diagnostic Criteria for Lesions) which is an international standard toxicology glossary. The degrees of crypt damage, inflammation severity, and inflammation extent in the mucosa of the large intestinal tissue were measured for comparison in the respective animal model groups, and results thereof are shown in FIG. 7 and Table 1. (Reference-J Toxicol Pathol 2016; 29 (1 Suppl): 1S-[…])

[4] = test system: DSS-induced colitis model; assay: Body weight change, study of FIG. 6 (FIG. 8, Table 3); conditions: MFG-E8 160 μg/kg
Excerpt: as §1, §2, §3, §4
First, using the animal models corresponding to the ‘NTC’ control group, the ‘UC CONTROL’ control group, the ‘MFG-E8’ experimental group, the ‘NP-011’ second experimental group, and the ‘NP-011’ third experimental group, body weight was measured daily for each animal model group before drug administration to reduce errors due to the administration.
In addition, increase or decrease in body weight was analyzed compared with the positive control group, and comprehensive results thereof are shown in FIG. 8 and Table 3.

[5] = test system: DSS-induced colitis model; assay: Colon length, study of FIG. 6 (FIG. 9); conditions: MFG-E8 160 μg/kg; 3 days after the last administration
Excerpt: as §1, with “models. […]” for “models.”
First, using the animal models corresponding to the \NTC′ control group, the ‘UC CONTROL’ control group, the ‘MFG-E8’ experimental group, the ‘NP-011’ second experimental group, and the ‘NP-011’ third experimental group, the large intestine was extracted separately for each animal model group, the colon length was analyzed, and the results thereof are shown in FIG. 9.
Specifically, to analyze the colon length, each animal model was euthanized by gradual increase in carbon dioxide 3 days after the last administration, and the large intestine was extracted. The extracted large intestine was photographed with a length measuring device (30 cm ruler), and the obtained photograph was quantified using image J.

[6] = MGF-E8 160 μg/kg, once a day x5 from day 7

## Adalimumab
[1]; AD 4 mg/kg
  Epithelial hyperplasia score: 4.2
  Erosion, mucosa: 0.8
[1]; AD 4 mg/kg, erosion + hyperplasia
  Group total average: 5.0
[1]; Adalimumab group
  degrees of erosion and epidermal hyperplasia in the mucosa of large intestinal tissues: reduced
[2]; 10 days
  Dunnett's multiple comparisons test UC VS AD, Summary (body weight): ** (** P<0.01)
[2]; Adalimumab group, Cyclosporine A group, NP-011 groups (20 to 80 μg/kg)
  weight loss: weight loss was observed
[2]; Day 1
  Change of original weight: 0.161 g
[2]; Day 2
  Change of original weight: 0.237 g
[2]; Day 3
  Change of original weight: 0.438 g
[2]; Day 4
  Change of original weight: 0.411 g
[2]; Day 5
  Change of original weight: -0.217 g
[2]; Day 6
  Change of original weight: -0.846 g
[2]; Day 7
  Change of original weight: -1.464 g
[2]; Day 8
  Change of original weight: -1.702 g
[2]; Day 9
  Change of original weight: -1.683 g
[2]; Day 10
  Change of original weight: -1.444 g
[2]; Day 11
  Dunnett's multiple comparisons test UC VS AD, Summary (body weight): **** (**** P<0.0001)
  Change of original weight: -0.471 g
[2]; Day 12
  Dunnett's multiple comparisons test UC VS AD, Summary (body weight): **** (**** P<0.0001)
  Change of original weight: -0.035 g
[2]; Day 13
  Dunnett's multiple comparisons test UC VS AD, Summary (body weight): **** (**** P<0.0001)
  Change of original weight: -0.467 g

B1: milk fat globule-EGF factor 8 (protein, UniProt Q08431 24-387, looked up)
Lactadherin: LDICSKNPCHNGGLCEEISQEVRGDVFPSYTCTCLKGYAGNHCETKCVEPLGLENGNIANSQIAASSVRVTFLGLQHWVPELARLNRAGMVNAWTPSSNDDNPWIQVNLLRRMWVTGVVTQGASRLASHEYLKAFKVAYSLNGHEFDFIHDVNKKHKEFVGNWNKNAVHVNLFETPVEAQYVRLYPTSCHTACTLRFELLGCELNGCANPLGLKNNSIPDKQITASSSYKTWGLHLFSWNPSYARLDKQGNFNAWVAGSYGNDQWLQVDLGSSKEVTGIITQGARNFGSVQFVASYKVAYSNDSANWTEYQDPRTGSSKIFPGNWDNHSHKKNLFETPILARYVRILPVAWHNRIALRLELLGC
notes: milk fat globule-EGF factor 8 (MFG-E8) protein, comparator
[3]; MFG-E8 160 μg/kg
  degrees of crypt damage, inflammation severity, and inflammation extent in the mucosa compared with the positive control group: reduced
[3]; [6]
  Crypt Damage: 2.9
  Inflammation Extent: 1.2
[3]; MGF-E8 160 μg/kg, once a day x5 from day 7, caudal vein
  Inflammation Severity: 1.1
[3]; MGF-E8 160 μg/kg, sum of severity, extent, crypt damage
  Group total average: 5.2
[4]; Day 7
  Dunnett's multiple comparisons test UC VS MFG-E8, Summary (body weight): ns
[4]; Day 8
  Dunnett's multiple comparisons test UC VS MFG-E8, Summary (body weight): ns
[4]; Day 9
  Dunnett's multiple comparisons test UC VS MFG-E8, Summary (body weight): ns
[4]; Day 10
  Dunnett's multiple comparisons test UC VS MFG-E8, Summary (body weight): ns
[4]; Day 11
  Dunnett's multiple comparisons test UC VS MFG-E8, Summary (body weight): ns
[5]
  colon length shrinkage suppression effect compared with the non-administration control group: statistically significant increase in the colon length shrinkage suppression effect
